Laboratory results taken from US20060240048A1 (priority 2002, published 2006).

Target: T1, human cannabinoid CB2 receptor (Homo sapiens, UniProt P34972)
T1 construct: expressed in transfected cells; host or cells: Saccharomyces cerevisiae strain MMY23
Experiment: Cannabinoid CB2 receptor agonist activity, yeast reporter assay (FDGlu fluorescence);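 on Emax: 100% equals maximal response of reference agonist HU210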
Format: cell-based
Details: for Emax: read-out: efficacy value (Emax) at the cloned human cannabinoid CB2 receptor

T1 sequence (P34972 whole entry): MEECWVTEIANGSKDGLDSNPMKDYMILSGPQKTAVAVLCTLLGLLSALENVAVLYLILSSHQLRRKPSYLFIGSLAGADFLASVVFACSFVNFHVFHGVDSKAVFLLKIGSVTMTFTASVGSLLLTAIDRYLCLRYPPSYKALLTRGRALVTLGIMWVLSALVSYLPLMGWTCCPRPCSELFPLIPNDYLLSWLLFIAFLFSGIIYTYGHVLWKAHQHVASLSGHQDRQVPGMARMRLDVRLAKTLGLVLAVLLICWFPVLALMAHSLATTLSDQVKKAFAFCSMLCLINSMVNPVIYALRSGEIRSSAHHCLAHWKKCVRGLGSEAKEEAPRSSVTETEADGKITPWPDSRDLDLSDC

Structure (SMILES)	EC50 [nM]	Emax [%]
Cc1cc(Cl)ccc1Nc1cc(C(F)(F)F)c(C(=O)NCC2CCCCC2)cn1 [Example 171, N-Cyclohexylmethyl-6-(2-methyl-4-chloro-phenyl-amino)-4-trifluoromethyl-nicotinamide]	< 300	> 50
Cc1cc(Cl)ccc1Nc1cc(C(F)(F)F)c(C(=O)NCC2CCOCC2)cn1 [Example 172, N-(Tetrahydropyran-4-yl-methyl)-6-(2-methyl-4-chloro-phenylamino)-4-trifluoro-]		> 50
O=C(NCC1CCCCCC1)c1cnc(Nc2cc(Cl)cc(Cl)c2)cc1C(F)(F)F [Example 175, N-Cycloheptylmethyl-6-(3,5-dichloro-phenyiamino)-4-trifluoromethyl-nicotinamide]		> 50
O=C(NCC1CCOCC1)c1ccc(Nc2cccc(Cl)c2)nc1C(F)(F)F [Example 204, 6-(3-Chloro-phenylamino)-N-(tetrahydro-pyran-4-ylmethyl)-2-trifluoromethyl-nicotinamide]	< 300	> 50
CC(C)c1nc(Nc2cccc(Cl)c2)ccc1C(=O)NCC1CCOCC1 [Example 208, 6-(3-Chloro-phenylamino)-2-isopropyl-N-(tetrahydro-pyran-4-ylmethyl)-nicotinamide]	< 300	> 50
CC(C)c1nc(Nc2cccc(Cl)c2)ccc1C(=O)NCC1CCS(=O)(=O)C1 (centres unmarked) [Example 209, 6-(3-Chloro-phenylamino)-N-(1,1-dioxo-tetrahydrothiophen-3-ylmethyl)-2-isopropyl-nicotinamide]	< 300	> 50
CC(C)c1nc(Nc2cccc(Cl)c2)ccc1C(=O)NCC1CCCC1 [Example 210, 6-(3-Chloro-phenylamino)-N-cyclopentylmethyl-2-isopropyl-nicotinamide]	< 300	> 50
CC(C)c1nc(Nc2cccc(Cl)c2)ccc1C(=O)NCC1CCCCC1 [Example 211, 6-(3-Chloro-phenylamino)-N-cyclohexylmethyl-2-isopropyl-nicotinamide]	< 300	> 50
CC(C)c1nc(Nc2ccc(Cl)cc2Cl)ccc1C(=O)NCC1CCC1 [Example 212, 6-(2,4-Dichloro-phenylamino)-N-cyclobutylmethyl-2-isopropyl-nicotinamide]	< 300	> 50
CC(C)c1nc(Nc2ccc(Cl)cc2Cl)ccc1C(=O)NCC1CCCC1 [Example 213, 6-(2,4-Dichloro-phenylamino)-N-cyclopentylmethyl-2-isopropyl-nicotinamide]	< 300	> 50
CC(C)c1nc(Nc2ccc(Cl)cc2Cl)ccc1C(=O)NCC1CCOCC1 [Example 214, 6-(2,4-Dichloro-phenylamino)-N-(tetrahydro-pyran-4-ylmethyl)-2-isopropyl-nicotinamide]	< 300	> 50
CC(C)c1nc(Nc2ccc(Cl)cc2Cl)ccc1C(=O)NCC1CCS(=O)(=O)C1 (centres unmarked) [Example 215, 6-(2,4-Dichloro-phenylamino)-N-(1,1-tetrahydrothiophen-3-ylmethyl)-2-isopropyl-nicotinamide]	< 300	> 50
CC(C)c1nc(Nc2cccc(F)c2)ccc1C(=O)NCC1CCC1 [Example 216, 6-(3-Fluoro-phenylamino)-N-cyclobutylmethyl-2-isopropyl-nicotinamide]	< 300	> 50
CC(C)c1nc(Nc2cccc(F)c2)ccc1C(=O)NCC1CCCC1 [Example 217, 6-(3-Fluoro-phenylamino)-N-cyclopentylmethyl-2-isopropyl-nicotinamide]	< 300	> 50
CC(C)c1nc(Nc2cccc(F)c2)ccc1C(=O)NCC1CCOCC1 [Example 218, 6-(3-Fluoro-phenylamino)-N-(tetrahydro-pyran-4-ylmethyl)-2-isopropyl-nicotinamide]	< 300	> 50
CC(C)c1nc(Nc2cccc(F)c2)ccc1C(=O)NCC1CCS(=O)(=O)C1 (centres unmarked) [Example 219, 6-(3-Fluoro-phenylamino)-N-(1,1-dioxo-tetrahydrothiophen-3-ylmethyl)-2-isopropyl-nicotinamide]	< 300	> 50
Cc1cc(C#N)ccc1Nc1cc(C(C)C)c(C(=O)NCC2CCOCC2)cn1 [Example 220, 6-(4-Cyano-2-methyl-phenylamino)-4-isopropyl-N-(tetrahydro-pyran-4-ylmethyl)-nicotinamide]	< 300	> 50
CC(C)c1cc(Nc2cc(Cl)ccc2C#N)ncc1C(=O)NCC1CCOCC1 [Example 221, 6-(S-Chloro-2-cyano-phenylamino)-4-isopropyl-N-(tetrahydro-pyran-4-ylmethyl)-nicotinamide]	300 to 1000	< 30
CC(C)c1cc(Nc2cccc(Cl)c2)ncc1C(=O)NCC1CCS(=O)(=O)C1 (centres unmarked) [Example 223, 6-(3-Chloro-phenylamino)-N-(1,1-dioxo-tetrahydro-1/^6-thiophen-3-ylmethyl)-4-isopropyl-nicotinamide]	< 300	> 50

Structure (SMILES)	EC50 [nM]	Emax [%]
CC(C)c1cc(Nc2cccc(OC(F)(F)F)c2)ncc1C(=O)NCC1CCC1 [Example 224, N-Cyclobutylmethyl-4-isopropyl-6-(3-trifluoromethoxy-phenylamino)-nicotinamide]	< 300	> 50
Cc1ccc(Br)cc1Nc1cc(C(C)C)c(C(=O)NCC2CCOCC2)cn1 [Example 234, 6-(5-Bromo-2-methyl-phenylamino)-4-isopropyl-N-(tetrahydro-pyran-4-ylmethyl)-nicotinamide]	< 300	> 50
CC(C)c1cc(Nc2cc(F)ccc2Br)ncc1C(=O)NCC1CCOCC1 [Example 235, 6-(2-Bromo-5-fluoro-phenylamino)-4-isopropyl-N-(tetrahydro-pyran-4-ylmethyl)-nicotinamide]	< 300	> 50
CC(C)c1cc(Nc2cc(C(F)(F)F)ccc2F)ncc1C(=O)NCC1CCOCC1 [Example 236, 6-(2-Fluoro-5-trifluoromethyl-phenylamino)-4-isopropyl-N-(tetrahydro-pyran-4-ylmethyl)-nicotinamide]	< 300	> 50
CC(C)c1cc(Nc2cc(C(F)(F)F)ccc2Cl)ncc1C(=O)NCC1CCOCC1 [Example 237, 6-(2-Chloro-5-trifluoromethyl-phenylamino)-4-isopropyl-N-(tetrahydro-pyran-4-ylmethyl)-nicotinamide]	< 300	> 50
CC(C)c1cc(Nc2cc(C(F)(F)F)ccc2Br)ncc1C(=O)NCC1CCOCC1 [Example 238, 6-(2-Bromo-5-trifluoromethyl-phenytamino)-4-isopropyl-N-(tetrahydro-pyran-4-ylmethyl)-nicotinamide]	< 300	> 50
CC(C)c1cc(Nc2ccc(C#N)c(Br)c2)ncc1C(=O)NCC1CCOCC1 [Example 239, 6-(3-Bromo-4-cyano-phenylamino)-4-isopropyl-N-(tetrahydro-pyran-4-ylmethyl)-nicotinamide]	< 300	> 50
CC(C)c1cc(Nc2ccc(OC(F)(F)F)cc2Br)ncc1C(=O)NCC1CCOCC1 [Example 240, 6-(2-Bromo-4-trifluoromethoxy-phenylamino)-4-isopropyl-N-(tetrahydro-pyran-4-ylmethyl)-nicotinamide]	< 300	> 50
Cc1c(Cl)cccc1Nc1cc(C(C)C)c(C(=O)NCC2CCOCC2)cn1 [Example 241, 6-(3-Chloro-2-methyl-phenylamino)-4-isopropyl-N-(tetrahydro-pyran-4-ylmethyl)-nicotinamide]	< 300	> 50
CC(C)c1cc(Nc2cc(F)cc(F)c2)ncc1C(=O)NCC1CCOCC1 [Example 242, 6-(3,5-Difluoro-phenylamino)-4-isopropyl-N-(tetrahydro-pyran-4-ylmethyl)-nicotinamide]	< 300	> 50
CC(C)c1cc(Nc2ccc(F)cc2Cl)ncc1C(=O)NCC1CCOCC1 [Example 243, 6-(2-Chloro-4-fluoro-phenylamino)-4-isopropyl-N-(tetrahydro-pyran-4-ylmethyl)-nicotinamide]	< 300	> 50
Cc1cc(Cl)ccc1Nc1cc(C(C)C)c(C(=O)NCC2CCOCC2)cn1 [Example 244, 6-(4-Chloro-2-methyl-phenylamino)-4-isopropyl-N-(tetrahydro-pyran-4-ylmethyl)-nicotinamide]	< 300	> 50
CC(C)c1cc(Nc2cccc(C(F)(F)F)c2F)ncc1C(=O)NCC1CCCC1 [Example 245, 6-(2-Fluoro-3-trifluoromethyl-phenylamino)-N-cyclopentylmethyl-4-isopropyl-nicotinamide]	< 300	> 50
Cc1cc(Cl)ccc1Nc1cc(C(C)C)c(C(=O)NCC2CCCC2)cn1 [Example 246, 6-(2-Methyl-4-chloro-phenylamino)-N-cyclopentylmethyl-4-isopropyl-nicotinamide]	< 300	> 50
CC(C)c1cc(Nc2ccc(C#N)c(Cl)c2)ncc1C(=O)NCC1CCCC1 [Example 247, 6-(3-Chloro-4-cyano-phenytamino)-N-cyclopentylmethyl-4-isopropyl-nicotinamide]	< 300	> 50
CC(C)c1cc(Nc2ccc(Br)cc2Cl)ncc1C(=O)NCC1CCCC1 [Example 248, 6-(4-bromo-2-chlorophenylamino)-N-cyclopentylmethyl-4-isopropyl-nicotinamide]	< 300	> 50
CC(C)c1cc(Nc2ccc(F)cc2F)ncc1C(=O)NCC1CCC1 [Example 249, N-Cyclobutylmethyl-6-(2,4-difluoro-phenylamino)-4-isopropyl-nicotinamide]	< 300	> 50
CC(C)c1cc(Nc2ccc(Cl)cc2Cl)ncc1C(=O)NCC1CCC1 [Example 250, N-Cyclobutylmethyl-6-(2,4-dichloro-phenylamino)-4-isopropyl-nicotinamide]	< 300	> 50
CC(C)c1cc(Nc2ccc(Cl)c(Cl)c2)ncc1C(=O)NCC1CCC1 [Example 251, N-Cyclobutylmethyl-6-(3,4-dichtoro-phenylamino)-4-isopropyl-nicotinamide]	< 300	> 50
